Target: PD-1/PD-L1 (Homo sapiens (Human), UniProt Q9NZQ7)
Experiment: PD-1/PD-L1 binding assay (HTRF)
Outline: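 HTRF read-out (665/620 nm) after 60 min at 25 °C with 1 nM Eu anti-human IgG and 20 nM APC anti-His. Beforehand, inhibitors were preincubated 40 min with Fc-PD-1 (25-167, […] as listed) and His-PD-L1 (19-238, 10 nM) in PBS pH 7.4 with Tween-20, BSA, 1% DMSO; IC50 from log-concentration curve.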

Chain of PD-1/PD-L1 (Q9NZQ7 19-238): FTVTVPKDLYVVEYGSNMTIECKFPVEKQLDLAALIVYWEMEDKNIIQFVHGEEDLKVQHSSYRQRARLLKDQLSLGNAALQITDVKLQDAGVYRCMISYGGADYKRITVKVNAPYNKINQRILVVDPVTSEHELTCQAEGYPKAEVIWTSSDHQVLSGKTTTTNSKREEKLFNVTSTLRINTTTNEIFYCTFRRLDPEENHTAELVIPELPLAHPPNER

SMILES | IC50 [nM]
Cn1c(C(=O)Nc2cccc(-c3cccc(NC(=O)c4nc5c(n4C)CCN(CC4CC4)C5)c3Cl)c2Cl)nc2c1CCN(CC[C@H]1CC[C@H](C(=O)O)CC1)C2 [Example 87, trans-4-(2-(2-((2,2′-dichloro-3′-(5-(cyclopropylmethyl)-1-methyl-4,5,6,7-tetrahydro-1H-imidazo[4,5-c]pyridine-2-carboxamido)-[1,1′-biphenyl]-3-yl)carbamoyl)-1-methyl-1,4,6,7-tetrahydro-5H-imidazo[4,5-c]pyridin-5-yl)ethyl)cyclohexane-1-carboxylic acid] | ≤ 10
CC(C)N1CCc2c(nc(C(=O)Nc3cccc(-c4cccc(NC(=O)c5nc6c(n5C)CCN(CC[C@H]5CC[C@H](C(=O)O)CC5)C6)c4Cl)c3Cl)n2C)C1 [Example 88, trans-4-(2-(2-((2,2′-dichloro-3′-(5-isopropyl-1-methyl-4,5,6,7-tetrahydro-1H-imidazo[4,5-c]pyridine-2-carboxamido)-[1,1′-biphenyl]-3-yl)carbamoyl)-1-methyl-1,4,6,7-tetrahydro-5H-imidazo[4,5-c]pyridin-5-yl)ethyl)cyclohexane-1-carboxylic acid] | ≤ 10
Cn1c(C(=O)Nc2cccc(-c3cccc(NC(=O)c4nc5c(n4C)CCN(C4CCC4)C5)c3Cl)c2Cl)nc2c1CCN(CC[C@H]1CC[C@H](C(=O)O)CC1)C2 [Example 89, trans-4-(2-(2-((2,2′-dichloro-3′-(5-cyclobutyl-1-methyl-4,5,6,7-tetrahydro-1H-imidazo[4,5-c]pyridine-2-carboxamido)-[1,1′-biphenyl]-3-yl)carbamoyl)-1-methyl-1,4,6,7-tetrahydro-5H-imidazo[4,5-c]pyridin-5-yl)ethyl)cyclohexane-1-carboxylic acid] | ≤ 10
Cn1c(C(=O)Nc2cccc(-c3cccc(NC(=O)c4nc5c(n4C)CCN(C4CCCC4)C5)c3Cl)c2Cl)nc2c1CCN(CC[C@H]1CC[C@H](C(=O)O)CC1)C2 [Example 90, trans-4-(2-(2-((2,2′-dichloro-3′-(5-cyclopentyl-1-methyl-4,5,6,7-tetrahydro-1H-imidazo[4,5-c]pyridine-2-carboxamido)-[1,1′-biphenyl]-3-yl)carbamoyl)-1-methyl-1,4,6,7-tetrahydro-5H-imidazo[4,5-c]pyridin-5-yl)ethyl)cyclohexane-1-carboxylic acid] | ≤ 10
Cn1c(C(=O)Nc2cccc(-c3cccc(NC(=O)c4nc5c(n4C)CCN(C4CCCCC4)C5)c3Cl)c2Cl)nc2c1CCN(CC[C@H]1CC[C@H](C(=O)O)CC1)C2 [Example 91, trans-4-(2-(2-((2,2′-dichloro-3′-(5-cyclohexyl-1-methyl-4,5,6,7-tetrahydro-1H-imidazo[4,5-c]pyridine-2-carboxamido)-[1,1′-biphenyl]-3-yl)carbamoyl)-1-methyl-1,4,6,7-tetrahydro-5H-imidazo[4,5-c]pyridin-5-yl)ethyl)cyclohexane-1-carboxylic acid] | ≤ 10
Cn1c(C(=O)Nc2cccc(-c3cccc(NC(=O)c4nc5c(n4C)CCN(C4CCOCC4)C5)c3Cl)c2Cl)nc2c1CCN(CC[C@H]1CC[C@H](C(=O)O)CC1)C2 [Example 92, trans-4-(2-(2-((2,2′-dichloro-3′-(1-methyl-5-(tetrahydro-2H-pyran-4-yl)-4,5,6,7-tetrahydro-1H-imidazo[4,5-c]pyridine-2-carboxamido)-[1,1′-biphenyl]-3-yl)carbamoyl)-1-methyl-1,4,6,7-tetrahydro-5H-imidazo[4,5-c]pyridin-5-yl)ethyl)cyclohexane-1-carboxylic acid] | ≤ 10
Cn1c(C(=O)Nc2cccc(-c3cccc(NC(=O)c4nc5c(n4C)CCN(CC[C@H]4CC[C@H](C(=O)O)CC4)C5)c3Cl)c2Cl)nc2c1CCN(CCO)C2 [Example 93, trans-4-(2-(2-((2,2′-dichloro-3′-(5-(2-hydroxyethyl)-1-methyl-4,5,6,7-tetrahydro-1H-imidazo[4,5-c]pyridine-2-carboxamido)-[1,1′-biphenyl]-3-yl)carbamoyl)-1-methyl-1,4,6,7-tetrahydro-5H-imidazo[4,5-c]pyridin-5-yl)ethyl)cyclohexane-1-carboxylic acid] | ≤ 10
C[C@H](O)CN1CCc2c(nc(C(=O)Nc3cccc(-c4cccc(NC(=O)c5nc6c(n5C)CCN(CC[C@H]5CC[C@H](C(=O)O)CC5)C6)c4Cl)c3Cl)n2C)C1 [Example 94, trans-4-(2-(2-((2,2′-dichloro-3′-(5-((S)-2-hydroxypropyl)-1-methyl-4,5,6,7-tetrahydro-1H-imidazo[4,5-c]pyridine-2-carboxamido)-[1,1′-biphenyl]-3-yl)carbamoyl)-1-methyl-1,4,6,7-tetrahydro-5H-imidazo[4,5-c]pyridin-5-yl)ethyl)cyclohexane-1-carboxylic acid] | ≤ 10
C[C@@H](O)CN1CCc2c(nc(C(=O)Nc3cccc(-c4cccc(NC(=O)c5nc6c(n5C)CCN(CC[C@H]5CC[C@H](C(=O)O)CC5)C6)c4Cl)c3Cl)n2C)C1 [Example 95, trans-4-(2-(2-((2,2′-dichloro-3′-(5-((R)-2-hydroxypropyl)-1-methyl-4,5,6,7-tetrahydro-1H-imidazo[4,5-c]pyridine-2-carboxamido)-[1,1′-biphenyl]-3-yl)carbamoyl)-1-methyl-1,4,6,7-tetrahydro-5H-imidazo[4,5-c]pyridin-5-yl)ethyl)cyclohexane-1-carboxylic acid] | ≤ 10
Cn1c(C(=O)Nc2cccc(-c3cccc(NC(=O)c4nc5c(n4C)CCN(C4CCOCC4)C5)c3Cl)c2Cl)nc2c1CCN(CCc1ccc(C(=O)O)cc1)C2 [Example 96, 4-(2-(2-((2,2′-dichloro-3′-(1-methyl-5-(tetrahydro-2H-pyran-4-yl)-4,5,6,7-tetrahydro-1H-imidazo[4,5-c]pyridine-2-carboxamido)-[1,1′-biphenyl]-3-yl)carbamoyl)-1-methyl-1,4,6,7-tetrahydro-5H-imidazo[4,5-c]pyridin-5-yl)ethyl)benzoic acid] | ≤ 10
Cn1c(C(=O)Nc2cccc(-c3cccc(NC(=O)c4nc5c(n4C)CCN(C4CCC(C(=O)O)CC4)C5)c3Cl)c2Cl)nc2c1CCN(C1CCOCC1)C2 (stereo not drawn) [Example 97, 4-(2-((2,2′-dichloro-3′-(1-methyl-5-(tetrahydro-2H-pyran-4-yl)-4,5,6,7-tetrahydro-1H-imidazo[4,5-c]pyridine-2-carboxamido)-[1,1′-biphenyl]-3-yl)carbamoyl)-1-methyl-1,4,6,7-tetrahydro-5H-imidazo[4,5-c]pyridin-5-yl)cyclohexane-1-carboxylic acid] | ≤ 10
Cn1c(C(=O)Nc2cccc(-c3cccc(NC(=O)c4nc5c(n4C)CCN(C4CCC(C)(C(=O)O)CC4)C5)c3Cl)c2Cl)nc2c1CCN(C1CCOCC1)C2 (stereo not drawn) [Example 98, 4-(2-((2,2′-dichloro-3′-(1-methyl-5-(tetrahydro-2H-pyran-4-yl)-4,5,6,7-tetrahydro-1H-imidazo[4,5-c]pyridine-2-carboxamido)-[1,1′-biphenyl]-3-yl)carbamoyl)-1-methyl-1,4,6,7-tetrahydro-5H-imidazo[4,5-c]pyridin-5-yl)-1-methylcyclohexane-1-carboxylic acid] | ≤ 10

— patent US10806785B2, “Immunomodulator compounds and methods of use” (Incyte Corporation, priority 2016, dated 2020)
